Series [1] can be described thus: Cell culture media unbound percentage and stability by rapid equilibrium dialysis (Example C). It is filed as in vitro ADME. The following applies: bovine, cell assay medium (RPMI-1640 with 10% fetal bovine serum), pH 7.4, rapid equilibrium dialysis, 4 hours at 37° C., read-out: Cell Culture Media Binding (% unbound). The gist of the method: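 Percent unbound in cell assay medium came from the LC-MS/MS receiver:donor peak area ratio, with stability taken as the 240 min over 0 min ratio. Set-up: 1 μM nominal compound in medium dialysed against pH 7.4 PBS (100 mM phosphate, 150 mM NaCl), 4 h, 37° C, shaken, in triplicate.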
A general note: Equilibrium dialysis compares concentrations on both sides of a semipermeable membrane.

Series [2] relates to SW48 human colorectal cancer cells. The experiment in a line: Calculated free drug potency in SW48 cell assay, corrected with media free fraction (Example C). It is filed as cell-based. The following applies: Homo sapiens, SW48, SW48 pCC50 corrected with measured free fraction in cell assay media. The gist of the method:
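Free drug potency derives from correcting SW48 assay concentrations with the unbound fraction in medium. That fraction came from RED against pH 7.4 PBS, 1 μM nominal compound, 4 h at 37 °C, quantified by LC-MS/MS peak area ratios at T=240 versus T=0 min.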

Series [3] concerns the target T1, recombinant full-length WRN protein (1-1432) (Homo sapiens, UniProt Q14191).
T1 construct: recombinant full-length WRN protein (1-1432)
Put plainly: WRN unwinding activity, fluorogenic 384-well assay (Example A). In kind it is biochemical. The following applies: WRN unwinding activity, 4 hr; Table 2; read-out: 4 hr UNW pIC50 (converted). Summed up:
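Read-out is end-point unwinding of a fluorophore/quencher duplex (ex 525, em 598 nm) after 60 min with 200 μM ATP and 12 nM DNA (2× stocks), EDTA stop. Compound first sat 4 h with 200 pM WRN (2× stock) in pH 8.0 Tris buffer; four-parameter fit gives pIC50.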

For series [4], the system named is SW48 human colorectal cancer cells (MSI-H cancer cells). The experiment in a line: SW48 cell viability, CellTiter-Glo, 120 hours (Example B). The following applies: Homo sapiens. (ATP-based viability assays read luminescence as a measure of living cells.)
The mark [5] stands for this setting: SW48, 120 h, read-out: SW48 pCC50, SW48 cell viability, 120 hours incubation (converted), Table 2.
Setting [6] is: SW48, read-out: SW48 pCC50, measured potency from Example B, as repeated in Table 3 (converted).

Like-named read-outs stand apart in the source and are kept apart here.

T1 sequence (Q14191 whole entry): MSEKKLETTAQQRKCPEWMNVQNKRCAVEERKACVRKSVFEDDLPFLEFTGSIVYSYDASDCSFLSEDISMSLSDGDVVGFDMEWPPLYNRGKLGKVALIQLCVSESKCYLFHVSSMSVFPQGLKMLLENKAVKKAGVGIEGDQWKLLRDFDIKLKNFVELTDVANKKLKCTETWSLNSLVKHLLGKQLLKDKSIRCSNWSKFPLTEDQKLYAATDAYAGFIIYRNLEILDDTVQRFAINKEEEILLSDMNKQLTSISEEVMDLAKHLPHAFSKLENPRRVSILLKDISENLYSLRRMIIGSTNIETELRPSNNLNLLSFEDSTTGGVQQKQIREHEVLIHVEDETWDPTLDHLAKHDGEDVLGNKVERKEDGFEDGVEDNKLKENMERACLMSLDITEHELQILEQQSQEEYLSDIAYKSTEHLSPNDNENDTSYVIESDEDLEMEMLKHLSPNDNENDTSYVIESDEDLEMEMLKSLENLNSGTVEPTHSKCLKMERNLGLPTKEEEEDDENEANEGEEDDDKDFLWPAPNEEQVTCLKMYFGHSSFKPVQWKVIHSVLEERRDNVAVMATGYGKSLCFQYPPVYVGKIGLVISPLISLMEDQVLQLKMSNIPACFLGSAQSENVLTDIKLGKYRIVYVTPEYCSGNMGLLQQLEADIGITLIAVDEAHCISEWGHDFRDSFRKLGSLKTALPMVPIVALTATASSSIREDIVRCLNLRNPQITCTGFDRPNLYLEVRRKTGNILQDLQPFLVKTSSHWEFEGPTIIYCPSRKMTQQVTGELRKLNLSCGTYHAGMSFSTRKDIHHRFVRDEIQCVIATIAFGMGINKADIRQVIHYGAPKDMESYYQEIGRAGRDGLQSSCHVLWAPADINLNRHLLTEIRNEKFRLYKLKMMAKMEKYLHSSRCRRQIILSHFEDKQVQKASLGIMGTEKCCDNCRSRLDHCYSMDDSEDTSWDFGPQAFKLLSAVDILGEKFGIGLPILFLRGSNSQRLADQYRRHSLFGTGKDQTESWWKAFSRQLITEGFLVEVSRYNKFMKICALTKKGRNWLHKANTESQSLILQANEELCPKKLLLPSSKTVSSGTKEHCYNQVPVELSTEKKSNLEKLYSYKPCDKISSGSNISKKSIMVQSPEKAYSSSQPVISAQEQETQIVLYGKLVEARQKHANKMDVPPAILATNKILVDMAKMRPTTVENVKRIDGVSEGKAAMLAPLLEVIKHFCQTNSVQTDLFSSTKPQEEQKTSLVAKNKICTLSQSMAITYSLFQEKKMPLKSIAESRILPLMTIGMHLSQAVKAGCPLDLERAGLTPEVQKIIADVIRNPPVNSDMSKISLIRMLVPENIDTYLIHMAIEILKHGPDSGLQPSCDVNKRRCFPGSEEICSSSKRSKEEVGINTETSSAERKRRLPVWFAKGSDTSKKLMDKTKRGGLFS

For the compound `COCCO[C@@H]1C[C@H](c2ccc(N(C)S(=O)(=O)c3ccc4c(c3)nc(C)n4C)cc2)[C@@H](C(=O)O)[C@H](C(=O)Nc2ccc(C(F)(F)F)cc2F)C1` (stereo in doubt) [Example 316, rel-(1R,2R,4R,6S)-2-((2-fluoro-4-(trifluoromethyl)phenyl)carbamoyl)-4-(2-methoxyethoxy)-6-(4-((N,1,2-trimethyl-1H-benzo[d]imidazole)-5-sulfonamido)phenyl)cyclohexane-1-carboxylic acid], the fraction unbound at 4 h, 1 µM in series [1] was 0.19. Moreover, the CC50 in series [2] is 30.2 nM; in series [4] (setting [5]) it was 158 nM; in series [4] (setting [6]) it was 158 nM. The IC50 in series [3] is 1.58 nM.

`Cc1nc2cc(S(=O)(=O)N(C)c3ccc([C@H]4C[C@@H](OC[C@H]5CCOC5)C[C@@H](C(=O)Nc5ccc(C(F)(F)F)cc5F)[C@@H]4C(=O)O)cc3)ccc2n1C` (stereo in doubt) [Example 317, (1R*,2R*,4R*,6S*)-2-((2-fluoro-4-(trifluoromethyl)phenyl)carbamoyl)-4-(((S)-tetrahydrofuran-3-yl)methoxy)-6-(4-((N,1,2-trimethyl-1H-benzo[d]imidazole)-5-sulfonamido)phenyl)cyclohexane-1-carboxylic acid]: in series [1], the fraction unbound at 4 h, 1 µM is 0.15. In addition, the CC50 in series [2] was 12 nM; in series [4] (setting [5]) it was 79.4 nM; in series [4] (setting [6]), 79.4 nM. The IC50 in series [3] is 1.58 nM.

With `Cc1nc2cc(S(=O)(=O)N(C)c3ccc([C@H]4C[C@@H](OC[C@@H]5CCOC5)C[C@@H](C(=O)Nc5ccc(C(F)(F)F)cc5F)[C@@H]4C(=O)O)cc3)ccc2n1C` (stereo in doubt) [Example 320, (1R*,2R*,4R*,6S*)-2-((2-fluoro-4-(trifluoromethyl)phenyl)carbamoyl)-4-(((R)-tetrahydrofuran-3-yl)methoxy)-6-(4-((N,1,2-trimethyl-1H-benzo[d]imidazole)-5-sulfonamido)phenyl)cyclohexane-1-carboxylic acid], in series [1], the fraction unbound at 4 h, 1 µM worked out at 0.112. In addition, the CC50 in series [2] was 8.91 nM; in series [4] (setting [5]), 79.4 nM; in series [4] (setting [6]), 79.4 nM. Further, in series [3], the IC50 was 3.98 nM.

Consider `Cc1nc2cc(S(=O)(=O)N(C)c3ccc([C@@H]4C[C@H](O[C@@H]5CCOC5)C[C@H](C(=O)Nc5ccc(C(F)(F)F)cc5F)[C@H]4C(=O)O)cc3)ccc2n1C` (stereo in doubt) [Example 322, (1R*,2R*,4R*,6S*)-2-((2-fluoro-4-(trifluoromethyl)phenyl)carbamoyl)-4-(((R)-tetrahydrofuran-3-yl)oxy)-6-(4-((N,1,2-trimethyl-1H-benzo[d]imidazole)-5-sulfonamido)phenyl)cyclohexane-1-carboxylic acid], for which the fraction unbound at 4 h, 1 µM in series [1] was found to be 0.362. The CC50 in series [2] is 3630 nM; in series [4] (setting [5]) it was 10000 nM. Moreover, in series [3], the IC50 was 20 nM.

Regarding `Cc1nc2cc(S(=O)(=O)N(C)c3ccc([C@H]4C[C@@H](O[C@H]5CCOC5)C[C@@H](C(=O)Nc5ccc(C(F)(F)F)cc5F)[C@@H]4C(=O)O)cc3)ccc2n1C` (stereo in doubt) [Example 323, (1R*,2R*,4R*,6S*)-2-((2-fluoro-4-(trifluoromethyl)phenyl)carbamoyl)-4-(((S)-tetrahydrofuran-3-yl)oxy)-6-(4-((N,1,2-trimethyl-1H-benzo[d]imidazole)-5-sulfonamido)phenyl)cyclohexane-1-carboxylic acid], the fraction unbound at 4 h, 1 µM in series [1] amounted to 0.144. Further, the CC50 in series [2] is 14.5 nM; in series [4] (setting [5]), 100 nM; in series [4] (setting [6]), 100 nM. The IC50 in series [3] is 1.58 nM.

Consider `Cc1nc2cc(S(=O)(=O)N(C)c3ccc([C@H]4C[C@@H](OC5CCC5)C[C@@H](C(=O)Nc5ccc(C(F)(F)F)cc5F)[C@@H]4C(=O)O)cc3)ccc2n1C` (stereo in doubt) [Example 325, rel-(1R,2R,4R,6S)-4-cyclobutoxy-2-((2-fluoro-4-(trifluoromethyl)phenyl)carbamoyl)-6-(4-((N,1,2-trimethyl-1H-benzo[d]imidazole)-5-sulfonamido)phenyl)cyclohexane-1-carboxylic acid], for which, in series [1], the fraction unbound at 4 h, 1 µM amounted to 0.0862. Further, the CC50 in series [2] was 17.4 nM; in series [4] (setting [5]), 200 nM; in series [4] (setting [6]), 200 nM. Also, in series [3], the IC50 is 2 nM.

Take `Cc1nc2cc(S(=O)(=O)N(C)c3ccc([C@H]4C[C@@H](OC[C@@H]5COCCO5)C[C@@H](C(=O)Nc5ccc(C(F)(F)F)cc5F)[C@@H]4C(=O)O)cc3)ccc2n1C` (stereo in doubt) [Example 329, (1R*,2R*,4R*,6S*)-4-(((S)-1,4-dioxan-2-yl)methoxy)-2-((2-fluoro-4-(trifluoromethyl)phenyl)carbamoyl)-6-(4-((N,1,2-trimethyl-1H-benzo[d]imidazole)-5-sulfonamido)phenyl)cyclohexane-1-carboxylic acid]: the fraction unbound at 4 h, 1 µM in series [1] worked out at 0.205. Further, the CC50 was 12.9 nM in series [2], 63.1 nM in series [4] (setting [5]) and 63.1 nM in series [4] (setting [6]). For the same compound, the IC50 in series [3] is 1.58 nM.

With `Cc1nc2cc(S(=O)(=O)N(C)c3ccc([C@@H]4C[C@H](NCC(F)(F)F)C[C@H](C(=O)Nc5ccc(C(F)(F)F)cc5F)[C@H]4C(=O)O)cc3)ccc2n1C` (stereo in doubt) [Example 333, rel-(1R,2R,4R,6S)-2-((2-fluoro-4-(trifluoromethyl)phenyl)carbamoyl)-4-((2,2,2-trifluoroethyl)amino)-6-(4-((N,1,2-trimethyl-1H-benzo[d]imidazole)-5-sulfonamido)phenyl)cyclohexane-1-carboxylic acid], the fraction unbound at 4 h, 1 µM in series [1] was 0.326. Moreover, the CC50 in series [2] is 3240 nM; in series [4] (setting [5]) it was 10000 nM. Also, the IC50 in series [3] is 126 nM.

With `Cc1nc2cc(S(=O)(=O)N(C)c3ccc([C@H]4C[C@@H](NCC(F)(F)F)C[C@@H](C(=O)Nc5ccc(C(F)(F)F)cc5F)[C@@H]4C(=O)O)cc3)ccc2n1C` (stereo in doubt) [Example 334, rel-(1R,2R,4R,6S)-2-((2-fluoro-4-(trifluoromethyl)phenyl)carbamoyl)-4-((2,2,2-trifluoroethyl)amino)-6-(4-((N,1,2-trimethyl-1H-benzo[d]imidazole)-5-sulfonamido)phenyl)cyclohexane-1-carboxylic acid], the fraction unbound at 4 h, 1 µM in series [1] worked out at 0.183. In addition, the CC50 was 45.7 nM in series [2], 251 nM in series [4] (setting [5]) and 251 nM in series [4] (setting [6]). In addition, the IC50 in series [3] was 1.58 nM.

Consider `Cc1nc2cc(S(=O)(=O)N(C)c3ccc([C@H]4C[C@H](NCC(F)(F)F)C[C@@H](C(=O)Nc5ccc(C(F)(F)F)cc5F)[C@@H]4C(=O)O)cc3)ccc2n1C` (stereo in doubt) [Example 336, rel-(1R,2R,4S,6S)-2-((2-fluoro-4-(trifluoromethyl)phenyl)carbamoyl)-4-((2,2,2-trifluoroethyl)amino)-6-(4-((N,1,2-trimethyl-1H-benzo[d]imidazole)-5-sulfonamido)phenyl)cyclohexane-1-carboxylic acid], for which, in series [1], the fraction unbound at 4 h, 1 µM amounted to 0.0491. For the same compound, the CC50 in series [2] was 155 nM; in series [4] (setting [5]), 3160 nM; in series [4] (setting [6]) it was 3160 nM. Also, the IC50 in series [3] is 1.58 nM.

With `Cc1nc2cc(S(=O)(=O)N(C)c3ccc([C@@H]4C[C@H](N5CCC(F)(F)CC5)C[C@H](C(=O)Nc5ccc(C(F)(F)F)cc5F)[C@H]4C(=O)O)cc3)ccc2n1C` (stereo in doubt) [Example 343], in series [1], the fraction unbound at 4 h, 1 µM was determined as 0.237. The CC50 in series [2] is 1170 nM; in series [4] (setting [5]), 5010 nM; in series [4] (setting [6]) it was 5010 nM. Besides, the IC50 in series [3] is 100 nM.

In the case of `Cc1nc2cc(S(=O)(=O)N(C)c3ccc([C@H]4C[C@@H](N5CCC(F)(F)CC5)C[C@@H](C(=O)Nc5ccc(C(F)(F)F)cc5F)[C@@H]4C(=O)O)cc3)ccc2n1C` (stereo in doubt) [Example 344], in series [1], the fraction unbound at 4 h, 1 µM was determined as 0.118. For the same compound, the CC50 in series [2] was 14.8 nM; in series [4] (setting [5]) it was 126 nM; in series [4] (setting [6]) it was 126 nM. Moreover, the IC50 in series [3] is 5.01 nM.

With `Cc1nc2cc(S(=O)(=O)N(C)c3ccc([C@@H]4C[C@@H](N5CCC[C@@H](F)C5)C[C@H](C(=O)Nc5ccc(C(F)(F)F)cc5F)[C@H]4C(=O)O)cc3)ccc2n1C` (stereo in doubt) [Example 346, rel-(1R*,2R*,4S*,6S*)-2-((2-fluoro-4-(trifluoromethyl)phenyl)carbamoyl)-4-((R)-3-fluoropiperidin-1-yl)-6-(4-((N,1,2-trimethyl-1H-benzo[d]imidazole)-5-sulfonamido)phenyl)cyclohexane-1-carboxylic acid], in series [1], the fraction unbound at 4 h, 1 µM came to 0.419. The CC50 in series [2] is 4170 nM; in series [4] (setting [5]), 10000 nM. In addition, in series [3], the IC50 was 3980 nM.

Source of the values: patent publication US12662451B2, “Chemical compounds and uses thereof” (GLAXOSMITHKLINE INTELLECTUAL PROPERTY (NO.4) LIMITED, priority 2023, dated 2026).
